The source of these data is patent publication US10130611B2, “Use of benzo-heterocycle derivatives for preventing and treating cancer or for inhibiting cancer metastasis” (MEDICINAL BIOCONVERGENCE RESEARCH CENTER, priority 2009, dated 2018).

For orientation: inhibition means the relative decrease from the control value, in per cent.

In data set [1] the target is T1, interaction between KRS and laminin receptor (67LR) (Homo sapiens, UniProt Q15046).
T1 construct: expressed in transfected cells; host or cells: yeast EGY/SH cells
T1 sequence (Q15046 whole entry): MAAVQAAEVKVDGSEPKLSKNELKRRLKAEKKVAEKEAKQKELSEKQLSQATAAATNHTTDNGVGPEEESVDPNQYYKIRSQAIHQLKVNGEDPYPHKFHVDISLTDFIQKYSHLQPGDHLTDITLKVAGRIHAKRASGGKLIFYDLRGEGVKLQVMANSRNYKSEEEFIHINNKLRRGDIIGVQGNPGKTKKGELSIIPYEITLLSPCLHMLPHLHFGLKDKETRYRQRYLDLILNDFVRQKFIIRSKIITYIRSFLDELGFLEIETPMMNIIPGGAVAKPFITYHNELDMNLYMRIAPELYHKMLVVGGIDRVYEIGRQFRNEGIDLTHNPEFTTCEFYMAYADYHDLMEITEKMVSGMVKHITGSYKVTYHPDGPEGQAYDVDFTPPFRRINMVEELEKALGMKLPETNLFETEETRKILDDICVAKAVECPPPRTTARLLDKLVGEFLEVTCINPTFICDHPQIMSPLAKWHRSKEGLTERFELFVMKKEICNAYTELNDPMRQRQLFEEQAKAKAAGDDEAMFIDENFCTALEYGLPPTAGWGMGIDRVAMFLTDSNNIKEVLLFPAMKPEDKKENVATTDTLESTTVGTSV
Briefly: Yeast two hybrid growth assay, LexA-KRS/B42-LR pair. The class given is cell-based. The procedure:
On the compound of the present invention obtained by screening a library of compounds, the extent of inhibition on the interaction between KRS and laminin receptor (67LR) was determined by a yeast two hybrid assay, as described below. KRS, LR, AIMP2, AIMP3 and MRS were cloned at LexA vector (clontech) and B42 vector (clontech) each so as to produce required vectors. From among the vectors, LexA-KRS vector and B42-LR vector were co-transformed into yeast EGY/SH cells, and then the yeast cells were diluted to an absorbance (540 nm wavelength) of 0.2 in galactose medium not containing uracil (Ura), histidine (His), tryptophane (Trp) and leucine (Leu), and placed in an amount of 200 u in a 96 well plate. 1 μl of each compound at a concentration of 10 mg/ml was placed in each well, incubated for 6 days, and the absorbance was measured at 540 nm. […] The inhibitory specificity of the selected compound was tested by using two different interaction pairs such as LexA-KRS/B42-AIMP2 and LexA-MRS/B42-AIMP3.
In order to determine if the compound of the present invention controls the interaction between KRS and laminin receptor, the present inventors determined the interaction between KRS and 67LR through treatment of the compound of the present invention.

The next data set deals with MMP2. The data set can be described thus: MMP2 activity (zymography). Conditions: KL1 in different amounts. The format is cell-based, human. The procedure: (§1) On MMP2 activity (FIG. 37) and cell migration (FIGS. 38 and 39), KL1-dose-dependent effect was measured. For the test on the cell migration, the cells were treated with KL1 for 8 hours. In FIG. 40, in order to see the effect of KL1 on protein synthesis of cells, A549 cells were treated with KL1 at indicated concentrations, and starved in methionine-free medium. Then, [^35S] methionine was added thereto for 2 hours. Then, the cells were incubated in complete medium for 4 hours, and the level of added methionine was measured by a scintillation counter. In FIG. 41, KL1-dose-dependent cytotoxicity was measured by using A549 cells. In FIG. 42, the effect of KL1 on cancer metastasis was measured according to the method as described above. In each group, 6 mice were included, and KL1 was abdominally injected for 3 weeks, in a dose of 30 mg/kg once a day. Then, the mice were sacrificed. The metastasized tumor nodules over 1 mm in diameter were counted, and their average was calculated (left). The photograph of a representative lung is shown at the right side. In FIG. 43, on a KL1 treated group and a KL1 non-treated, primary tumors were observed.
A549 cells were transfected with the plasmids encoding the indicated siRNAs and recombinant KRS (or DRS) were incubated for 48 and 24 hours, respectively, and were inoculated to RPMI medium containing 10% FBS (1×10^5 cells/well). […]

Data set [2] concerns A549 cells. The data set can be described thus: Cell migration assay (transwell membrane). The class given is cell-based, human. The conditions noted are these: KL1 in different amounts, 8 hours. The procedure: as §1, with “Then, the mice were sacrificed.” left out, “The photograph of a representative lung is shown at the right side. In FIG. 43, on a KL1 treated group and a KL1 non-treated, primary tumors were observed.” left out
Cell migration was measured by using 24-well transwell chambers with polycarbonate membranes (8.0 μm pore size, Costar) as previously described (Park, S. G. et al. Human lysyl-tRNA synthetase is secreted to trigger pro-inflammatory response, Proc. Natl. Acad. Sci. USA 102, 6356-6361 (2005)). […] The migrated cells (attached to the lower face of the membrane) were counted at four randomly selected sites by a microscope (×20).

In data set [3] the test system is A549 cells. The data set can be described thus: Cell protein synthesis ([35S]methionine incorporation). The class given is cell-based, human. The conditions noted are these: KL1 at indicated concentrations, [35S]methionine 2 hours. As for the experimental part:
as §1, with “In FIG. 43, on a KL1 treated group and a KL1 non-treated, primary tumors were observed.” left out
A549 cells were treated with the compound (2-[2-(4-methyl-benzoylimino)-benzothiazole-3-yl]-butyric acid, CAND-KL1 or KL1) represented by Formula 15, at indicated concentrations. […] They were lysed, and the radiation dose of lysed cells was measured by a scintillation counter.

The subject of data set [4] is A549 cells. The data set can be described thus: Cytotoxicity analysis (EZ-cytox). The class given is cell-based, human. Conditions: KL1 at indicated concentrations, 24 hours. The procedure: 10^4 A549 cells were placed in a 96-well plate, and treated with the compound represented by Formula 15, at indicated concentrations for 24 hours. Then, EZ-cytox (Daeil Lab, Korea) compound was added in an amount of 10 μl to each well in accordance with the manufacturer's instruction, followed by cultivation for 2 hours. A microplate reader was used to measure the absorbance at 420 nm.

`CCC(C(=O)O)n1/c(=N/C(=O)c2ccc(C)cc2)sc2ccccc21` (stereo not drawn) [Compound of formula 15, 2-[2-(4-Methyl-benzoylimino)-benzothiazol-3-yl]-butyric acid]: in data set [1] (growth inhibition of yeast EGY/SH cells with LexA-KRS/B42-LR vs control, 1 μl of 10 mg/ml compound per well, 6 days, absorbance 540 nm, read-out: Inhibition rate(%)), the inhibition at 10000 µg/mL (stock) amounted to 52.1%. In data set [1] (yeast two hybrid pair KRS-67LR, compound at 50 μg/ml, DMSO control 0.4241), the “KRS-67LR (yeast growth, OD level)” value is 0.2223. In addition, in the data set on MMP2, the MMP2 activity result is reported as “inhibited”. In the data set on A549 cells [2], the cell migration result was “inhibited”. Further, the intracellular protein synthesis result in the data set on A549 cells [3] was “not influenced”. Also, the viability entry in the data set with A549 cells [4] is “not influenced”.
